According to ChEMBL document CHEMBL3046474, “Development of robust QSAR model using rapid overlay of crystal structures (ROCS) based alignment: a test case of Tubulin inhibitors” (Med Chem Res, 2013):

target: Tubulin; test: Inhibition of tubulin polymerization in Homo sapiens (human) solid tumor cells

| pIC50 | SMILES |
| --- | --- |
| 5.52 | COc1ccc(/C=C\c2cc(OC)c(OC)c(OC)c2)nc1 |
| 5.47 | COc1cc(/C=C\c2ccc(N(C)C)cc2)cc(OC)c1OC |
| 5.11 | COc1ccc(Cc2cc(OC)c(OC)c(OC)c2)cc1O |
| 5.48 | COc1ccc(CCc2cc(OC)c(OC)c(OC)c2)cc1O |
| 5.22 | CCCOc1ccc(/C=C\c2cc(OC)c(OC)c(OC)c2)cc1 |
| 5.4 | COc1ccc(/C=C(/C=O)c2cc(OC)c(OC)c(OC)c2)cc1 |
| 5.7 | COc1cc(/C=C\c2ccc(C)cc2)cc(OC)c1OC |
| 5.7 | COc1ccc(/C=C\c2cc(OC)c(OC)c(OC)c2)cn1 |
| 5.21 | COc1cc(/C=C\c2cccc(SC)c2)cc(OC)c1OC |
| 5.05 | COc1cnc(/C=C\c2cc(OC)c(OC)c(OC)c2)cn1 |
| 5 | COc1ccc(\C=C/C=C/C=C/c2cc(OC)c(OC)c(OC)c2)cc1O |
| 5.92 | COc1cc(/C=C\c2ccc(C)c(N=[N+]=[N-])c2)cc(OC)c1OC |
| 5.3 | COc1ccc(/C(C#N)=C\c2cc(OC)c(OC)c(OC)c2)cc1N |
| 5.46 | COc1cc(CNc2ccc(C)c(O)c2)cc(OC)c1OC.Cl |
| 4 | COc1cc2ccc3cc(O)c(C)cc3c2c(OC)c1OC |
| 5.05 | COc1ccc(NCc2cc(OC)c(OC)c(OC)c2)cc1O.Cl |
| 5.22 | COc1ccc(/C=C(/C#N)c2cc(OC)c(OC)c(OC)c2)cc1 |
| 5.52 | COc1ccc(/C=C(/C(N)=O)c2cc(OC)c(OC)c(OC)c2)cc1N |
| 5.52 | COc1ncc(/C=C\c2cc(OC)c(OC)c(OC)c2)cn1 |
| 5.7 | COc1cc(/C=C\c2ccn(C)c(=O)c2)cc(OC)c1OC |
| 4.66 | COc1ccc(C(O)C(O)c2cc(OC)c(OC)c(OC)c2)cc1O (centres undefined) |
| 4.79 | COc1ccc(Oc2cc(OC)c(OC)c(OC)c2)cc1O |
| 4.65 | COc1ccc(OCc2cc(OC)c(OC)c(OC)c2)cc1O |
| 5.46 | COc1ccc(COc2cc(OC)c(OC)c(OC)c2)cc1O |
| 4.64 | COc1ccc(NCc2cc(OC)c(OC)c(OC)c2)cc1 |
| 4.26 | COc1ccc(CCCCc2cc(OC)c(OC)c(OC)c2)cc1O |
| 4.44 | COc1cc(/C=C\c2ccccc2)cc(OC)c1OC |

| SMILES | pIC50 |
| --- | --- |
| COc1ccc(/C=C(/C#N)c2cc(OC)c(OC)c(OC)c2)cc1N | 5 |
| COc1cc(/C=C\c2ccc(Cl)c(N)c2)cc(OC)c1OC | 5.52 |
| COc1cc(/C=C\c2ccc(OC(C)=O)cc2)cc(OC)c1OC | 4.54 |
| COc1cccc(/C=C\c2cc(OC)c(OC)c(OC)c2)c1 | 5.06 |
| COc1ccc(/C=C(/C#N)c2cc(OC)c(OC)c(OC)c2)cc1O | 5.3 |
| COc1cc(/C=C\c2ccc(Br)cc2)cc(OC)c1OC | 5.51 |
| COc1cc(/C=C\c2ccc(C)c(N)c2)cc(OC)c1OC | 5.4 |
